No end group written: not given here.
Experiments:
GPR15 (human) = molecular target: T1, GPR15 (human) (UniProt P49685)
T1 sequence: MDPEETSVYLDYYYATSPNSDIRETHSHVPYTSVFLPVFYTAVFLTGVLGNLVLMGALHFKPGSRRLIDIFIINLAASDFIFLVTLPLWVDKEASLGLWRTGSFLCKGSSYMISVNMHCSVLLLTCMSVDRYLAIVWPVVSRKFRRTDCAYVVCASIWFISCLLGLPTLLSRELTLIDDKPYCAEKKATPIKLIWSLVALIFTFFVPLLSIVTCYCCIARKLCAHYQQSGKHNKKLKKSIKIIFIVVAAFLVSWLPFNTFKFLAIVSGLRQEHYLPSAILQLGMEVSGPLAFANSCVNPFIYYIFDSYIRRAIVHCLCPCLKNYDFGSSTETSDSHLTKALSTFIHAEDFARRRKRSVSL

GPR1 [1] = molecular target: T2, GPR1 (Homo sapiens, UniProt P46091); assay: Real-time receptor internalization, validation; type: cell-based; set-up: host or cells: HTLA cells (HEK293-derived)
T2 sequence (P46091 1-355): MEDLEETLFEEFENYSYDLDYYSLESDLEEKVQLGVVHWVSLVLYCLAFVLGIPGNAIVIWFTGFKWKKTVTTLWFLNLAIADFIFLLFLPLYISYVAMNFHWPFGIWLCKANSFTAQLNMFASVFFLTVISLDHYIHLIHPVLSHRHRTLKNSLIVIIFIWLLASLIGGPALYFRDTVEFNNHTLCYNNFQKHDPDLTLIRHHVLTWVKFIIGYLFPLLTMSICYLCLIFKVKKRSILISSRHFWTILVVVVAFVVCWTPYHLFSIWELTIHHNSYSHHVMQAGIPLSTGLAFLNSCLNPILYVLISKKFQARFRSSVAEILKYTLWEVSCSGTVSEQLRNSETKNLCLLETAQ
Excerpt: (§1) Supplement mmc7.xlsx, sheet "Peptide validation data" | column: Comment

GPR1 [2] = molecular target: T2, GPR1; assay: Dynamic mass redistribution (DMR), validation; type: cell-based; set-up: host or cells: HTLA cells (HEK293-derived)
Excerpt: as §1

GPR1 [3] = molecular target: T2, GPR1; assay: β-arrestin recruitment (Tango), validation; type: cell-based; set-up: host or cells: HTLA cells (HEK293-derived)
GPR1 [4] = molecular target: T2, GPR1; assay: β-arrestin recruitment (PathHunter); type: cell-based; conditions: for Emax, PathHunter (fold over basal) / pEC50, PathHunter (fold over basal): GPR1, mean, SEM and n
Experimental: PathHunter eXpress Assays (DiscoverX) were performed in 384-well format according to the manufacturer’s recommendations. GPR1 cells were incubated with peptides for 90 min and luminescence measured using an EnSpire 2300 Multimode plate reader (PerkinElmer).

[5] = molecular target: T3, melanocortin MC4 receptor (Homo sapiens, UniProt P32245); assay: β-arrestin recruitment (Tango), known peptide receptors; type: cell-based; conditions: MC4R; mean, n = 3
T3 construct: host or cells: HTLA cells (HEK293-derived)
T3 sequence (P32245 whole entry): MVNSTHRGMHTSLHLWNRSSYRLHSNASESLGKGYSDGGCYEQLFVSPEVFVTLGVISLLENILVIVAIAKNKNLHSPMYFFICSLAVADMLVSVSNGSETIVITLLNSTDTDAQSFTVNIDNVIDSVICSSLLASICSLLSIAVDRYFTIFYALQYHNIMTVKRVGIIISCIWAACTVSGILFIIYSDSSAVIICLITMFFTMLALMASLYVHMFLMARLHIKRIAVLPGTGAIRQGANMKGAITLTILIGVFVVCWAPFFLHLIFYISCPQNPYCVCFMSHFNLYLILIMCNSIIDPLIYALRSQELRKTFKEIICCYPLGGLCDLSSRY
Experimental: (§2) The peptide library was additionally screened against 120 GPCR targets in parallel, including all available orphan receptors and 27 known class A peptide receptors using the Tango assay platform ([Kroeze et al., 2015]). Briefly, HTLA cells (a HEK293 cell line stably expressing a tTA-dependent luciferase reporter and a β-arrestin2-TEV fusion gene) were plated 10,000 cells/well in poly-L-lysine–coated clear-bottom white 384-well plates in DMEM supplemented with 10% FBS, 100 U/ml penicillin and 100 μg/ml streptomycin, 2 μg/ml puromycin and 100 μg/ml hygromycin B. 24 hr later, cells were transfected with Tango GPCR constructs using the calcium phosphate method ([Jordan et al., 1996]). The next day, culture medium was changed to DMEM + 1% dFBS and 10 μM peptides were added for overnight stimulation. Bright-Glo solution (Promega) was incubated for 15–20 min at room temperature, and luminescence was counted using a Trilux luminescence counter (Wallac).
(§3) For subsequent peptide validation experiments using Tango assays, HTLA cells were transiently transfected in 10 cm dishes with the receptor of interest using polyethylenimine (PEI) ([Longo et al., 2013]). After 24 hr, 25,000 cells/well were plated in clear bottom, white-walled 384-well plates. Assays were performed as described above, with luminescence measured using an EnSpire 2300 Multimode plate reader (PerkinElmer). Luminescence counts were exported into Excel and were analyzed using GraphPad Prism 7.

human GPCRs = test system: human GPCRs; set-up: method as in Guide to Pharmacology database; conditions: receptor gasr_human (CCKBR, P32239); max reported value; ref Guide to Pharmacology database; cited from earlier work
Excerpt: Supplement mmc1.xlsx, sheet "HumanGPCRLigands" | column: pKi_value; pKd_value; pEC50_value; pIC50_value

NPFF2 = assay: β-arrestin recruitment (Tango), known peptide receptors; type: cell-based, human; conditions: endogenous ligand(s) included in peptide library
Excerpt: Supplement mmc6.xlsx, sheet "Peptide GPCR controls" | column: Confirmed?

GPR176 = molecular target: T4, GPR176 (Homo sapiens, UniProt Q14439); assay: β-arrestin recruitment (Tango), indicative pairing; type: cell-based; conditions: mean, n = 3
T4 construct: host or cells: HTLA cells (HEK293-derived)
T4 sequence (Q14439 1-515): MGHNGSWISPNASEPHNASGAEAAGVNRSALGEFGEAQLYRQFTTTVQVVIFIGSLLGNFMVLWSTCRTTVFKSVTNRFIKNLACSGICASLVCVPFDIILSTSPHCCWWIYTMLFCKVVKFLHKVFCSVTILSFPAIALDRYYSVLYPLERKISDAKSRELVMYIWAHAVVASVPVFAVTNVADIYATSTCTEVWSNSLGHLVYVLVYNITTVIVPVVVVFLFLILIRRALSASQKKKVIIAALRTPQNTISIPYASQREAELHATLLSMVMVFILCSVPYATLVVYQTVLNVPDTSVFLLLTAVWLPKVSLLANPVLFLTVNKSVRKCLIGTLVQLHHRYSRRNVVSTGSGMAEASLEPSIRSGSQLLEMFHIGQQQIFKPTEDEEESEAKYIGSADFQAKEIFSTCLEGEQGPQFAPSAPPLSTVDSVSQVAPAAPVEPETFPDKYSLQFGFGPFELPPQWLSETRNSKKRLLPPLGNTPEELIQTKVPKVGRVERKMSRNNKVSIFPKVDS
Experimental: as §2, §3

Q: For “45-amino acid cleavage variant of GPR15L (peptide)”, which fold improved potency at GPR15 against the 11-amino acid peptide 64 (assay not given) (GPR15 (human)) is on record?
A: 10 fold

Q: What does the source list for CSCC[C@H](NC(=O)[C@H](Cc1c[nH]c2ccccc12)NC(=O)CNC(=O)[C@H](Cc1ccc(O)cc1)NC(=O)[C@H](C)NC(=O)[C@H](CCC(=O)O)NC(=O)[C@H](CCC(=O)O)NC(=O)[C@H](CCC(=O)O)NC(=O)[C@H](CCC(=O)O)NC(=O)[C@H](CCC(=O)O)NC(=O)[C@H](CC(C)C)NC(=O)[C@H](Cc1c[nH]c2ccccc12)NC(=O)[C@@H]1CCCN1C(=O)CNC(=O)[C@@H](N)CCC(N)=O)C(=O)N[C@@H](CC(=O)O)C(=O)N[C@@H](Cc1ccccc1)C(N)=O [Peptide 118, Gastrin-17, reference compound]?
A: Comment on response, Internalization (AUC); Emax and pEC50 n.d. (GPR1 [1]): No response; known CCK receptor agonist; Comment on response, DMR (AUC); Emax and pEC50 n.d. (GPR1 [2]): No response; known CCK receptor agonist; Emax, Tango (fold over basal) (GPR1 [3]; GPR1, mean, SEM and n): 9.8 fold over basal; EC50 (GPR1 [3]; HTLA cells transiently transfected, overnight stimulation, luciferase, mean ± SEM of 3-4 independent experiments in triplicate, read-out: pEC50, β-arrestin recruitment (Tango), GPR1 (converted)): > 10 µM; EC50 (GPR1 [3]; pEC50, Tango (fold over basal), GPR1, mean, SEM and n): 102 µM; Emax, PathHunter (fold over basal) (GPR1 [4]): 3.5 fold over basal; pEC50, PathHunter (fold over basal) (GPR1 [4]): 5.24; EC50 (GPR1 [4]; PathHunter eXpress GPR1 cells, 90 min, luminescence, mean ± SEM of 3-4 independent experiments in triplicate, read-out: pEC50, β-arrestin recruitment (PathHunter), GPR1 (converted)): 6.31 µM

Q: For “ELEGEQPDGLEHVLEPDTEKADGPYRVEHFRWGNPPKD [Peptide 205]”, which “Emax, Tango (fold over basal)” value [5] is on record?
A: 4.9 fold over basal

Q: What about the “pEC50, Tango (fold over basal)” value [5] of the same molecule?
A: 6.21

Q: Which “Emax, Tango (fold over basal)” value [5] does the source give for HSQGTFTSDYSKYLDS [Peptide 110] here?
A: 4.2 fold over basal

Q: What about the “pEC50, Tango (fold over basal)” value [5] of the same molecule?
A: 5.93

Q: For “KAPSGRMSIVKNLQNLDPSHRISDRDYMGWMDF [Peptide 194, cholecystokinin (CCK-33), reference compound]”, which “Comment on response, Internalization (AUC); Emax and pEC50 n.d.” value (GPR1 [1]) is on record?
A: No response; Known CCK receptor agonist

Q: What about the “Comment on response, DMR (AUC); Emax and pEC50 n.d.” value (GPR1 [2]) of the same molecule?
A: No response; Known CCK receptor agonist

Q: What about the “Emax, Tango (fold over basal)” value (GPR1 [3]; GPR1, mean, SEM and n) of the same molecule?
A: 15.0 fold over basal

Q: What about the “pEC50, Tango (fold over basal)” value (GPR1 [3]; GPR1, mean, SEM and n) of the same molecule?
A: 5.28

Q: And the “Emax, PathHunter (fold over basal)” value (GPR1 [4])?
A: 5.7 fold over basal

Q: What about the “pEC50, PathHunter (fold over basal)” value (GPR1 [4]) of the same molecule?
A: 8.01

Q: And the pIC50_value (human GPCRs)?
A: 8.8

Q: What does the source list for “KRSFSGFGSPLDRLSAGSVDHK [Processed Osteocrin_(-2-19)]”?
A: Comment on response, Internalization (AUC); Emax and pEC50 n.d. (GPR1 [1]): No response; Comment on response, DMR (AUC); Emax and pEC50 n.d. (GPR1 [2]): No response; Emax, Tango (fold over basal) (GPR1 [3]; GPR1, mean, SEM and n): 14.4 fold over basal; pEC50, Tango (fold over basal) (GPR1 [3]; GPR1, mean, SEM and n): 5.60; Emax, PathHunter (fold over basal) (GPR1 [4]): 8.0 fold over basal; pEC50, PathHunter (fold over basal) (GPR1 [4]): 6.18

Q: Which “Confirmed? (confirmation of b-arrestin recruitment)” value (“Confirmed?” for short) (NPFF2) does the source give for Neuropeptide NPVF; RFRP-3 here?
A: No

Q: Which “Confirmed?” value (NPFF2) does the source give for Neuropeptide RFRP-1 (MPHSFANLPLRF-NH2) here?
A: No

Q: Which “Confirmed?” value (NPFF2) does the source give for Neuropeptide SF (SQAFLFQPQRF-NH2) here?
A: No

Q: Which “Emax, Tango (fold over basal)” value (GPR176) does the source give for RSVNPYLQ [Peptide 32] here?
A: 2.3 fold over basal

Q: What about the “pEC50, Tango (fold over basal)” value (GPR176) of the same molecule?
A: 5.82

Q: Which pEC50 of reduced cyclic AMP (cAMP) production (Gi/o) (GPR15 (human)) does the source give for peptide 64 (GPR15L_(47-57)) here?
A: 6.72 pEC50

B1: GPR15L (ligand)
peptide: KRRPAKAWSGRRTRLCCHRVPSPNSTNLKGHHVRLCKPCKLEPEPRLWVVPGALPQV
modifications: disulfide (positions not given here)
Q: Which fold improved potency at GPR15 against the 11-amino acid peptide 64 (assay not given) (GPR15 (human)) does the source give for B1 here?
A: 100 fold

Source: publication PMC6838683, “Discovery of Human Signaling Systems: Pairing Peptides to G Protein-Coupled Receptors” (Cell, 2019)
